Results from PubChem BioAssay (NCI).
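Dose response: 5 concentrations. Exposure: 48 h. Format: 96-well plates. Endpoint: linear interpolation; highest concentration if not reached. At the TGI there is no net growth.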

Legend:
Experiment in all cases: NCI tumour cell line growth inhibition, 48 h
786-0 renal = system: 786-0 renal
A498 renal = system: A498 renal
A549 NSCLC = system: A549 NSCLC
ACHN renal = system: ACHN renal
BT-549 breast = system: BT-549 breast
CAKI-1 renal = system: CAKI-1 renal
CCRF-CEM leukemia = system: CCRF-CEM leukemia
COLO 205 colon = system: COLO 205 colon
DU-145 prostate = system: DU-145 prostate
EKVX NSCLC = system: EKVX NSCLC
HCC-2998 colon = system: HCC-2998 colon
HCT-116 colon = system: HCT-116 colon
HCT-15 colon = system: HCT-15 colon
HL-60(TB) leukemia = system: HL-60(TB) leukemia
HOP-62 NSCLC = system: HOP-62 NSCLC
HOP-92 NSCLC = system: HOP-92 NSCLC
HS 578T breast = system: HS 578T breast
HT29 colon = system: HT29 colon
K-562 leukemia = system: K-562 leukemia
KM12 colon = system: KM12 colon
LOX IMVI melanoma = system: LOX IMVI melanoma
M14 melanoma = system: M14 melanoma
MCF7 breast = system: MCF7 breast
MDA-MB-231 breast = system: MDA-MB-231 breast
MDA-MB-435 = system: MDA-MB-435
MDA-N = system: MDA-N
MOLT-4 leukemia = system: MOLT-4 leukemia
NCI-H226 lung = system: NCI-H226 lung
NCI-H23 lung = system: NCI-H23 lung
NCI-H460 lung = system: NCI-H460 lung
NCI-H522 lung = system: NCI-H522 lung
NCI/ADR-RES ovarian = system: NCI/ADR-RES ovarian
OVCAR-3 ovarian = system: OVCAR-3 ovarian
OVCAR-4 ovarian = system: OVCAR-4 ovarian
OVCAR-5 ovarian = system: OVCAR-5 ovarian
OVCAR-8 ovarian = system: OVCAR-8 ovarian
PC-3 prostate = system: PC-3 prostate
RPMI-8226 leukemia = system: RPMI-8226 leukemia
RXF 393 renal = system: RXF 393 renal
SF-268 CNS = system: SF-268 CNS
SF-295 CNS = system: SF-295 CNS
SF-539 CNS = system: SF-539 CNS
SK-MEL-2 melanoma = system: SK-MEL-2 melanoma
SK-MEL-28 melanoma = system: SK-MEL-28 melanoma
SK-MEL-5 melanoma = system: SK-MEL-5 melanoma
SK-OV-3 ovarian = system: SK-OV-3 ovarian
SNB-75 CNS = system: SNB-75 CNS
SR leukemia = system: SR leukemia
SW-620 colon = system: SW-620 colon
T-47D breast = system: T-47D breast
TK-10 renal = system: TK-10 renal
U251 CNS = system: U251 CNS
UACC-257 melanoma = system: UACC-257 melanoma
UACC-62 melanoma = system: UACC-62 melanoma
UO-31 renal = system: UO-31 renal

`O=C1C(Br)=CC2(C=C1Br)CCN=c1c(O)c3c(c(O)c12)=NC=N3` gave a TGI (786-0 renal) of 30 µM, a TGI (A498 renal) of 33.2 µM and a TGI (A549 NSCLC) of 37.9 µM. The TGI (ACHN renal) was 27.7 µM, the TGI (BT-549 breast) was 33.3 µM and the TGI (CAKI-1 renal) was 41 µM. It also gave a TGI (CCRF-CEM leukemia) of 48.9 µM, a TGI (COLO 205 colon) of 37.6 µM and a TGI (DU-145 prostate) of 29.6 µM. It also gave a TGI (EKVX NSCLC) of 32 µM, a TGI (HCC-2998 colon) of 46.3 µM and a TGI (HCT-116 colon) of 30.3 µM. The TGI (HCT-15 colon) was 29.1 µM, the TGI (HL-60(TB) leukemia) was 35 µM and the TGI (HOP-62 NSCLC) was 31.1 µM. It also gave a TGI (HOP-92 NSCLC) of 24.8 µM, a TGI (HS 578T breast) of 71.5 µM and a TGI (HT29 colon) of 29.2 µM. For the same compound, the TGI (K-562 leukemia) was 41.1 µM, the TGI (KM12 colon) was 30.9 µM and the TGI (LOX IMVI melanoma) was 27.1 µM. For the same compound, the TGI (M14 melanoma) was 30.6 µM, the TGI (MCF7 breast) was 28.5 µM and the TGI (MDA-MB-231 breast) was 29.4 µM. The TGI (MDA-MB-435) was 23.4 µM, the TGI (MDA-N) was 3.34 µM and the TGI (MOLT-4 leukemia) was greater than 100 µM. It also gave a TGI (NCI-H226 lung) of 37.4 µM, a TGI (NCI-H23 lung) of 26.9 µM and a TGI (NCI-H460 lung) of 32.8 µM. It also gave a TGI (NCI-H522 lung) of 28.1 µM, a TGI (NCI/ADR-RES ovarian) of 52.9 µM and a TGI (OVCAR-3 ovarian) of 29.1 µM. For the same compound, the TGI (OVCAR-4 ovarian) was 27.8 µM, the TGI (OVCAR-5 ovarian) was 29.4 µM and the TGI (OVCAR-8 ovarian) was 31.9 µM. It also gave a TGI (PC-3 prostate) greater than 100 µM, a TGI (RPMI-8226 leukemia) of 50.9 µM and a TGI (RXF 393 renal) of 29.9 µM. The TGI (SF-268 CNS) was 28.2 µM, the TGI (SF-295 CNS) was 30 µM and the TGI (SF-539 CNS) was 32.1 µM. For the same compound, the TGI (SK-MEL-2 melanoma) was 21.3 µM, the TGI (SK-MEL-28 melanoma) was 29.9 µM and the TGI (SK-MEL-5 melanoma) was 23.4 µM. For the same compound, the TGI (SK-OV-3 ovarian) was 48.2 µM, the TGI (SNB-75 CNS) was 30.5 µM and the TGI (SR leukemia) was greater than 100 µM. The TGI (SW-620 colon) was 31.9 µM, the TGI (T-47D breast) was 33.7 µM and the TGI (TK-10 renal) was 59 µM. It also gave a TGI (U251 CNS) of 28.4 µM, a TGI (UACC-257 melanoma) of 28 µM and a TGI (UACC-62 melanoma) of 24.2 µM. For the same compound, the TGI (UO-31 renal) was 29.4 µM.
